Laboratory results reported in US12168005B2, “Methods for treating wild type isocitrate dehydrogenase 1 cancers” (University Hospitals Cleveland Medical Center, priority 2019, dated 2024).

Legend:
[1] = test system: pancreatic cancer cell line (Panc1) cells; assay: reactive oxygen species (ROS) levels in Panc1 cells; assay type: cell-based; conditions: 1 μM, zero mM magnesium ion, 2.5 mM glucose, Panc1, 48 hours
Method: ROS levels were measured by measuring 2′,7′-dichlorodihydrofluorescein diacetate (DCFDA) or MitoSOX as previously described (Zarei et al. (2017) Cancer Res; 77(16) 4460-4471).
Importantly, these low magnesium ion and low glucose conditions were consistent with the pancreatic cancer tumor microenvironment (FIG. 6).

[2] = test system: wild type IDH1 pancreatic cancer (MiaPaCa2 cell line) xenografts; assay: pancreatic xenograft study (MiaPaCa2); assay type: in vivo, mice; conditions: oral 150 mg/kg
Description: FIG. 7. […] No toxicity to mice occurred at these oral doses.
No toxicity was observed.

wild type IDH1 = target: T1, wild type IDH1 (Homo sapiens, UniProt O75874); assay: wild type IDH1 enzyme activity at varying Mg2+ concentrations (FIG. 19); assay type: cell-based; conditions: 1 μM, Mg2+ below 0.4 mM
T1 construct: endogenous in cells; host or cells: MiaPaCa2
T1 sequence (O75874 2-414): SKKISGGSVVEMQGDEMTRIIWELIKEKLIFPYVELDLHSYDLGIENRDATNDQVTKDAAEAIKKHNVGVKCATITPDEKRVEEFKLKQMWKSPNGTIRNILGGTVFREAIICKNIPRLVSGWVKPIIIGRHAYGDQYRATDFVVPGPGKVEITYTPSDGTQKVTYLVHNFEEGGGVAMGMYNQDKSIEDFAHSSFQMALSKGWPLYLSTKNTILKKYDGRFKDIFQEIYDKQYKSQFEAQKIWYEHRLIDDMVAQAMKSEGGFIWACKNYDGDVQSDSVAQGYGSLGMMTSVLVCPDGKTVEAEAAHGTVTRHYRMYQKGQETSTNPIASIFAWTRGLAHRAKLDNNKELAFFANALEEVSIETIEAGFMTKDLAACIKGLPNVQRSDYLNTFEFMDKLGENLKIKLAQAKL
Description: In one embodiment, the cancer treated in accordance with any of the invention's methods contains cancer cells having a lower Magnesium^2+ (Mg^2+) concentration compared to Mg^2+ concentration in serum, such as serum from the subject and/or serum from a control subject lacking cancer.

[3] = 500 mg daily in humans; cited from earlier work

N#Cc1ccnc(N2C(=O)CC[C@H]2C(=O)N(c2cncc(F)c2)[C@H](C(=O)NC2CC(F)(F)C2)c2ccccc2Cl)c1 [AG-120, Ivosidenib]
increase in ROS [1]: 3 fold
toxicity to mice [2]: No toxicity
reduction of wild type IDH1 enzyme activity (wild type IDH1): 50%
plasma concentration [3]: 130 µM
